# Entries after “also recorded” stand apart in the source; their conditions may differ.
# B1: placental ALP: human placental alkaline phosphatase isoenzyme, fully glycosylated tissue specific ectophosphatase (native or recombinant) (protein, UniProt P05187 23-506, looked up)
# Alkaline phosphatase, …: IIPVEEENPDFWNREAAEALGAAKKLQPAQTAAKNLIIFLGDGMGVSTVTAARILKGQKKDKLGPEIPLAMDRFPYVALSKTYNVDKHVPDSGATATAYLCGVKGNFQTIGLSAAARFNQCNTTRGNEVISVMNRAKKAGKSVGVVTTTRVQHASPAGTYAHTVNRNWYSDADVPASARQEGCQDIATQLISNMDIDVILGGGRKYMFRMGTPDPEYPDDYSQGGTRLDGKNLVQEWLAKRQGARYVWNRTELMQASLDPSVTHLMGLFEPGDMKYEIHRDSTLDPSLMEMTEAALRLLSRNPRGFFLFVEGGRIDHGHHESRAYRALTETIMFDDAIERAGQLTSEEDTLSLVTADHSHVFSFGGYPLRGSSIFGLAPGKARDRKAYTVLLYGNGPGYVLKDGARPDVTESESGSPEYRQQSAVPLDEETHAGEDVAVFARGPQAHLVHGVQEQTFIAHVMAFAACLEPYTACDLAPPAGTTD
# B2: intestinal isoenzyme: intestinal alkaline phosphatase isoenzyme, tissue specific ectophosphatase (protein, UniProt P09923 20-503, looked up)
# Intestinal-type alkaline …: VIPAEEENPAFWNRQAAEALDAAKKLQPIQKVAKNLILFLGDGLGVPTVTATRILKGQKNGKLGPETPLAMDRFPYLALSKTYNVDRQVPDSAATATAYLCGVKANFQTIGLSAAARFNQCNTTRGNEVISVMNRAKQAGKSVGVVTTTRVQHASPAGTYAHTVNRNWYSDADMPASARQEGCQDIATQLISNMDIDVILGGGRKYMFPMGTPDPEYPADASQNGIRLDGKNLVQEWLAKHQGAWYVWNRTELMQASLDQSVTHLMGLFEPGDTKYEIHRDPTLDPSLMEMTEAALRLLSRNPRGFYLFVEGGRIDHGHHEGVAYQALTEAVMFDDAIERAGQLTSEEDTLTLVTADHSHVFSFGGYTLRGSSIFGLAPSKAQDSKAYTSILYGNGPGYVFNSGVRPDVNESESGSPDYQQQAAVPLSSETHGGEDVAVFARGPQAHLVHGVQEQSFVAHVMAFAACLEPYTACDLAPPACTTD
# Experiments:
# [1] = tested on: ED1+ and ED2+ synovial macrophages; assay: Synovial macrophage infiltration (ED1/ED2 immunohistochemistry) in knees of rats with mBSA antigen-induced arthritis; format: in vivo, rat
# Description: (§1) Experiments were performed using a rat model for RA as published by Chandruputla et al. (BioMed Int, 2015) to show the effects of recombinant human alkaline phosphatase (hRESCAP) on RA. hRESCAP was compared with MTX used as a positive control. The antigen-induced rat model uses two subcutaneous immunizations with a mixture of methylated bovine serum albumin (mBSA), CFA (complete Freund's adjuvant antigen) and CBP (custom Bordetella pertussis antigen) and intra-articular injections of mBSA on one side knee and saline (negative control) on the counter knee. Immunohistochemical (IHC) analysis specifically focussed on infiltration with macrophages and knee swelling is followed over time after therapeutic treatment with MTX, or hRESCAP.
# (§2) In the rat model, RA is induced in the right knee (RA knee), the contralateral left knee serves as a internal control (control knee). The model allows various options for therapeutic interventions, either before intra-articular injections or during boosts injections with mBSA. Two hours prior to AP administration, rats received a dose of levamisole (50 mg/kg, s.c.). For comparison, arthritic rats received treatment with methotrexate (1 mg/kg, i.p.).
# At the end of the experiment, rats were sacrificed and knees were decalcified and processed for IHC analysis of synovial macrophage infiltration, including 2 rat macrophage antibodies; ED1 (homolog of human CD68) and ED2 (homolog of human CD163, a proposed marker for human M2 anti-inflammatory macrophages). IHC analysis of ED1 and ED2 macrophages was performed in multiple quadrants of synovial tissue, as described by Chandruputla et al (BioMed Int, 2015). Macrophage counting included synovial lining layer (SL 1-10) and synovial sublining layers (SL 1-20).
# (§3) All rats (except healthy) were immunized and arthritis was induced via 1× or 4× intra-articular (i.a) mBSA injections, 4 or 5 days apart in the arthritic (right) knee, the contralateral (left, non-arthritic) knee serving as control knee. For therapeutic interventions, AP (human recombinant placenta AP, TNO, Zeist, The Netherlands) was administered subcutaneously (s.c.) at a dose of 700 U/kg (≈200 μg), MTX (VU University Medical Centers' Pharmacy) was administered intra-peritoneal (i.p.) at two dosages: 0.3 mg/kg (low dose) and 1.0 mg/kg (high dose). The rats were divided in 8 groups, based on different treatments and treatment schedules. In a prophylactic setting, two rats received AP twice prior to intra-articular (i.a.) arthritis induction and four rats received AP twice prior to intra-articular and 4× PBS in between i.a. injections. In the treatment groups, arthritic rats were administered AP twice or 4× after arthritis induction, either as standalone therapy or in combination with low or high dose MTX. Control rats received 500 μL of PBS (i.p.). […] At the end of study, all rats were sacrificed and tissues were excised for further processing and various analyses.
# The arthritic and contralateral knees from all rats were dissected in toto and fixed for 7 days at 4° C. in 10% freshly made paraformaldehyde in PBS with 2% sucrose (pH=7.3) prior to decalcification in osteosoft (101728, Merck, Germany) for ˜2.5 weeks at room temperature. Thereafter, knees were embedded in paraffin. Sections of 5 μm were cut through the centre of the joint in longitudinal direction and stained with haematoxylin and eosin (HE) to assess the degree of inflammation in synovial tissue. Liver and spleen sections from all rats were dissected and fixed in 4% paraformaldehyde for 24 h before embedding in paraffin. Sections of 5 μm were cut and stained initially with HE and then for macrophages Staining for macrophages with ED1 (homologous to human CD68), and ED2 (homologous to human CD163, a marker for M2 anti-inflammatory macrophages), or isotype control antibody was performed. Images were captured using a Leica 4000B microscope and Leica digital camera DC500 (Microsystems B. V. Rijswijk, The Netherlands). […]
# arthritic rats = assay: Knee swelling in rats with mBSA antigen-induced arthritis; format: in vivo, rat
# Description: as §1, §2, §3
# [2] = Tolerability of therapeutic interventions in arthritic rats; format: in vivo
# Description: as §3
# macrophages = conditions: rat, in vivo
# Description: At the end of the treatment period, arthritic rats receiving 4× AP, 4× AP/low dose MTX, 4× AP/high dose MTX treatment, and untreated rats, were administered with [^18F]fluoro-PEG-folate tracer. Sixty minutes after tracer administration, rats were sacrificed. Low and high dose MTX treated arthritic rats were sacrificed without tracer administration. Upon sacrificing, all rats were excised and knees, blood and various internal organs were collected, rinsed, dipped dry, weighed and the amount of radioactivity determined using an LKB 1282 Compugamma CS gamma counter (LKB, Wallac, Turku, Finland). Results for tracer uptake in the various tissues were expressed as percentage of the injected dose per gram tissue (%ID/g).
# [3] = cited from earlier work; for plasma residence time: in vivo
molecule,measurement,setting,value
"CN(Cc1cnc2nc(N)nc(N)c2n1)c1ccc(C(=O)N[C@@H](CCC(=O)O)C(=O)O)cc1 [MTX, Methotrexate, reference compound]",effect of the two MTX doses on the number of ED1 macrophages in the arthritic knee,[1]; MTX 0.3 mg/kg versus 1.0 mg/kg,identical effect
same,ED1+ synovial macrophage infiltration in arthritic knee (in words),"[1]; therapeutic treatment, 4× after first i.a. and in between boosts, AP 700 U/kg, MTX 1 mg/kg",even more reduced macrophage ED1+ counts; also recorded: very much reduced
same,swelling of the mBSA-injected right knee,"arthritic rats; prophylactic and therapeutic AP treatment or MTX treatment, versus positive control",Reduced swelling
same,swelling of the non-treated left knee,arthritic rats; versus positive control treatment,swelling is reduced
same,changes in body weight,[2],nor were significant changes in the body weight observed
[^18F]fluoro-PEG-folate [reference compound],clearance of the tracer from plasma,macrophages,rapidly cleared from plasma
B1,plasma residence time,[3],6 to 7 days
same,half-life (T1/2) of clearance out of circulation,[3]; pregnant women,170 h
B2,plasma residence time,[3],short plasma residence time
